This is an account of results in PMC11020070, “Discovery of Protease-Activated Receptor 4 (PAR4)-Tethered Ligand Antagonists Using Ultralarge Virtual Screening” (ACS Pharmacology & Translational Science, 2024).

A short description of series [1]: Plasma protein binding, human plasma. The note with it: pH 7.4, read-out: human PPB fu. It is filed as in vitro ADME.
Series [2] can be described thus: Buffer-only incubation (KPI or Tyrode's HP buffer), compound stability. It is filed as physicochemical. The note with it: potassium phosphate (KPI) or Tyrode's buffer (HP), no microsomes. From the text:
Mammalian liver microsomes include CYPs, flavin monooxygenases (FMOs), glucuronosyltransferases ([…]), and esterases as part of their enzyme composition. In the presence of NADPH, which serves as a cofactor for CYP- and FMO-dependent reactions, the observed activity can be attributed to these enzymes. Similarly, UGTs require the cofactor uridine diphosphate glucuronic acid (UDPGA). Therefore, when NADPH and UDPGA are absent, any reduction in the compound can be ascribed only to esterase activity or chemical instability. […] This is based on two factors: (1) the stability of the compounds in HP buffer, which is used in the platelet assays, and (2) the low probability of drug metabolism occurring within the platelets themselves. Together, these minimize the chance that any metabolites with distinct PAR4 potencies could confound the results. By comparing the area under the curve of the compound metabolized from the microsomal incubations in the presence or absence of NADPH to the corresponding area under the curve of the buffer-only incubation, the percent contribution of CYPs and FMOs and esterases were estimated (Table S1). The major contributing enzyme toward the metabolism of 12 is esterases in both the human (96%) and mouse (98%). In contrast, the metabolism of 31 was primarily driven by CYPs and FMOs in both HLM (80%) and MLM (88%).
Supplem ental Fig ure S5 . Depletion of 12 over time in the presence (ν) or absence (λ) of NADPH. Incubations w e re carried out in the presence of human (A) or mouse (B) li ver microsomes or without microsomes but in either KPI (C) or HP (D) buffer. […] Error bars smaller than the symbols a re not visible. […]
Supplem ental Figure S6. […] Values a re expressed as percentage of compound remaining at ea ch time compared with time 0 min and represent the mean ± SD (n = 3). […]
Supplem ental Fig ure S7 . […] Values a re expressed as percentage of compound remaining at ea ch time co mpa red with time 0 min and represent the mean ± SD (n = 3). […]

Series [3] in a line: Microsomal stability, human liver microsomes. It counts as in vitro ADME. The note with it: for CLint scaled at 1 µM: pH 7.4, human liver microsomes, in vitro, reaction started with NADPH; for human CLhep: predicted hepatic clearance from human liver microsomes. Here is the method: The metabolic stability of each compound was investigated in mouse and human hepatic microsomes using substrate depletion methodology (% parent compound remaining). Prior to use, microsomes were removed from the freezer and allowed to thaw in a 37 °C water bath before being placed on wet ice.
In separate 96-well plates for each time point, a mixture of 0.1 M potassium phosphate-buffered (pH 7.4), 3 mM MgCl2, and 2.5 mg/mL microsomes were prewarmed at 37 °C for 5 min. Following the preincubation, a 1 μM test compound and 1 mM NADPH (for 3, 7, 15, 25, or 45 min time points) or buffer (for 0 min time point) were added to initiate the reaction. Under standard conditions, reactions were initiated with the addition of NADPH. To delineate the contribution of esterases, some experiments were initiated by the addition of substrate in the presence or absence of NADPH. Plates were incubated at 37 °C under ambient oxygenation. At the respective times, each plate’s reaction was precipitated by the addition of 2 volumes of ice-cold acetonitrile containing an internal standard (carbamazepine, 50 nM). The plates were centrifuged at 4000 rcf (4 °C) for 5 min. The resulting supernatants were transferred and diluted 1:1 (supernatant:water) into new 96-well plates in preparation for LC/MS/MS analysis. Each compound was assayed in triplicate within the same 96-well plate. The in vitro half-life (t1/2, min, eq 1), intrinsic clearance (CLint, mL/min/kg, eq 2), and subsequent predicted hepatic clearance (CLhep, mL/min/kg, eq 3) were determined employing the following equations [drawing 1] 1 [drawing 2] 2 [drawing 3] 3 The estimated percent contribution to metabolism was calculated from the percent substrate lost plots generated from metabolic incubations initiated with the addition of a test compound. Calculations compared the area under the curve (AUC) from conditions in the presence and absence of NADPH and buffer-only (control) conditions (eqs 4 and 5). AUC was calculated by using the trapezoidal method [drawing 4] 4 [drawing 5] 5
The analysis of in vitro samples from microsomal stability or plasma protein binding experiments was determined by employing LCMS/MS with an electrospray ionization-enabled 5500 Sciex instrument (Sciex, Foster City, CA) that was coupled to Agilent HPLC pumps and an autosampler (Agilent Technologies, Santa Clara, CA). Analytes were separated by gradient elution using a Kinetex C18 column (2.1 mm × 50 mm, 5 μm; Phenomenex, Torrance, CA) warmed to 35 °C. Mobile phase A was 0.5% formic acid in water, and mobile phase B was 0.5% formic acid in acetonitrile. […] The total run time was 2.8 min, and the HPLC flow rate was 0.5 mL/min. Mass spectral analyses were performed using multiple reaction monitoring, with transitions and voltages specific for each analyte using a Turbo Ion Spray source (source temperature of 500 °C) in positive ionization mode (5.0 kV spray voltage). Multiple reaction monitoring transitions were the following: 6110B8 (m/z 345.02 → 149.03, DP = 31; EP = 10; CE = 37 and CXP = 14), 6G3R (m/z 421.06 → 225.12, DP = 91; EP = 10; CE = 39 and CXP = 12), 5D22 (m/z 309.068 → 211.16, DP = 131; EP = 10; CE = 29 and CXP = 12), and carbamazepine (m/z 237 → 194, DP = 96; EP = 10; CE = 25 and CXP = 8). Data were analyzed using OS Sciex Analyst 1.5.1 (SCIEX, Framingham, MA), Graphpad Prism 10.1.0 (GraphPad Software, Boston, Massachusetts), and Microsoft Excel version 2310 (Microsoft, Redmond, WA).

Take `O=C(Nc1nc[nH]n1)c1nn(-c2ccccc2)c2c1CCC2` [Compound 17]: the fraction unbound at 4 h in series [1] worked out at 0.029. In addition, in series [2], the “loss of compound over time in buffer only” value (“loss of compound over time” below) is “little loss of compound over time”. In series [3], the CLint scaled at 1 µM is 49.6 mL/min/kg and the “human CLhep” value is 14.8 mL/min/kg.
Consider `Cn1nc(C(=O)Nc2n[nH]c(-c3c(F)cccc3F)n2)cc1C1CC1` [Compound 12], for which, in series [1], the fraction unbound at 4 h is 0.052. The “loss of compound over time” value in series [2] is “little loss of compound over time”. Besides, in series [3], the CLint scaled at 1 µM came to 478 mL/min/kg and the “human CLhep” value is listed as 20.1 mL/min/kg.
Regarding `COc1cccc(-c2nc(NC(=O)c3nn(-c4ccccc4)c4c3CCCC4)n[nH]2)c1` [Compound 32], the fraction unbound at 4 h in series [1] amounted to 0.007. In addition, in series [3], the CLint scaled at 1 µM came to 285 mL/min/kg and the “human CLhep” value was 19.6 mL/min/kg.
On to `O=C(Nc1n[nH]c(-c2ccc(F)cc2F)n1)c1nn(-c2ccccc2)c2c1CCCC2` [Compound 31], for which, in series [1], the fraction unbound at 4 h stood at 0.015. In addition, the “loss of compound over time” value in series [2] is “little loss of compound over time”. Also, in series [3], the CLint scaled at 1 µM was determined as 459 mL/min/kg and the “human CLhep” value is on record as 20.1 mL/min/kg.
For the compound `Cc1cc(C(=O)Nc2n[nH]c(OC(F)F)n2)nn1-c1ccccc1` [Compound 9], the fraction unbound at 4 h in series [1] came to 0.036. Also, in series [3], the CLint scaled at 1 µM worked out at 407 mL/min/kg and the “human CLhep” value is recorded as 20 mL/min/kg.

As a reminder, the CLint scaled is the rate of metabolic loss divided by the concentration. Higher therefore signals faster metabolism.
